How the values were obtained:
[1] = tested on: LoVo (CCL-229) human colorectal cancer cells; assay: Tumor cell anti-proliferation assay (CTG assay); type: cell-based; settings: 96 h incubation, CellTiter-Glo, IC50 (Y=50%)
Text: Assay 2: Tumor Cell Anti-proliferation Assay (CTG Assay)
Human colorectal cancer cells HT-29 (HTB-38) and LoVo (CCL-229) were selected for the CTG assay, the two cell lines were originally obtained from the American Type Culture Collection (ATCC). Add FBS and appropriate additives into base medium to prepare complete medium, then briefly rinse the cell layer with 0.25% (w/v) Trypsin-0.038% (w/v) EDTA solution to remove all traces of serum that contains trypsin inhibitor, after that, add appropriate volume of Trypsin-EDTA solution to flask and observe cells under an inverted microscope until cell layer is dispersed, at last, add appropriate volume of complete growth medium and aspirate cells by gently pipetting. Collect and count numbers with Vi-cell XR and adjust cell density, seed cells into 96-well opaque-walled clear bottom tissue-culture treated plates in the CO2 incubator for 20-24 hours. All the test compounds will be at 10 mM in DMSO. Compounds are then added to the cell media in 3-fold serial dilutions, the final DMSO concentration is 0.5%. Incubate plates for 96 h at 5% CO2, 37° C. Before the measurement, transfer the appropriate volume of CellTiter-Glo Buffer into the amber bottle containing CellTiter-Glo substrate to reconstitute the lyophilized enzyme/substrate mixture, mix gently, this forms the CellTiter-Glo Reagent (Promega Cat. No. G7573). Equilibrate the plate and its contents to room temperature for approximately 30 minutes, then add 100 µL of CellTiter-Glo Reagent to the assay plate, mix contents for 2 minutes on an orbital shaker to induce cell lysis, incubate at room temperature for 10 minutes to stabilize luminescent signal, at last paste the clear bottom with white back seal and record luminescence with Enspire. IC50 and GI50 values were calculated with XLFit curve fitting software using 4 Parameter Logistic Model Y=Bottom + (Top-Bottom)/(1+(IC50/X)^HillSlope).
The following Table 3 provides the IC50 (Y=50%) values for exemplary compounds of Formula (I).

ATR kinase = biological target: T1, ATR kinase (Homo sapiens, UniProt Q13535); assay: ATR inhibition assay (mobility shift assay, FAM-RAD17 phosphorylation); type: biochemical; settings: substrate FAM-RAD17, ATR kinase (Eurofins)
T1 construct: purchased Eurofins 14-953
Protocol: Assay 1: ATR Inhibition Assay
The assay was developed and conducted at Chempartner. All the test compounds were dissolved in 100% DMSO at concentration of 20 mM, then prepare compounds and conducted the assay as follows:
1) Transfer 80 µl20 mM compound to 40 µl of 100% DMSO in a 96-well plate.
2) Serially dilute the compound by transferring 20 µl to 60 µl of 100% DMSO in the next well and so forth for a total of 10 concentrations.
3) Add 100 µl of 100% DMSO to two empty wells for no compound control and no enzyme control in the same 96-well plate. Mark the plate as source plate.
4) Transfer 40 µl of compound from source plate to a new 384-well plate as the intermediate plate.
5) Transfer 60 nl compounds to assay plate by Echo.
No. D14JP007N) into Kinase base buffer (50 mM HEPES, pH 7.5; 0.0015% Brij-35; 0.01% Triton) to prepare 2x enzyme solution, then add 10 µl of 2x enzyme solution to each well of the 384-well assay plate, incubate at room temperature for 10 min.
8) Incubate at 28° C. for specified period of time. Add 40 µl of stop buffer (100 mM HEPES, pH 7.5; 0.015% Brij-35; 0.2% Coating Reagent #3; 50 mM EDTA) to stop reaction.
9) Collect data on Caliper. Convert conversion values to inhibition values.
wherein “max” stands for DMSO control; “min” stands for low control.
Fit the data in XLFit excel add-in version 5.4.0.8 to obtain IC50 values. Equation used is: […]
wherein X means concentration in a format not transformed to logarithms.

T1 sequence (Q13535 whole entry): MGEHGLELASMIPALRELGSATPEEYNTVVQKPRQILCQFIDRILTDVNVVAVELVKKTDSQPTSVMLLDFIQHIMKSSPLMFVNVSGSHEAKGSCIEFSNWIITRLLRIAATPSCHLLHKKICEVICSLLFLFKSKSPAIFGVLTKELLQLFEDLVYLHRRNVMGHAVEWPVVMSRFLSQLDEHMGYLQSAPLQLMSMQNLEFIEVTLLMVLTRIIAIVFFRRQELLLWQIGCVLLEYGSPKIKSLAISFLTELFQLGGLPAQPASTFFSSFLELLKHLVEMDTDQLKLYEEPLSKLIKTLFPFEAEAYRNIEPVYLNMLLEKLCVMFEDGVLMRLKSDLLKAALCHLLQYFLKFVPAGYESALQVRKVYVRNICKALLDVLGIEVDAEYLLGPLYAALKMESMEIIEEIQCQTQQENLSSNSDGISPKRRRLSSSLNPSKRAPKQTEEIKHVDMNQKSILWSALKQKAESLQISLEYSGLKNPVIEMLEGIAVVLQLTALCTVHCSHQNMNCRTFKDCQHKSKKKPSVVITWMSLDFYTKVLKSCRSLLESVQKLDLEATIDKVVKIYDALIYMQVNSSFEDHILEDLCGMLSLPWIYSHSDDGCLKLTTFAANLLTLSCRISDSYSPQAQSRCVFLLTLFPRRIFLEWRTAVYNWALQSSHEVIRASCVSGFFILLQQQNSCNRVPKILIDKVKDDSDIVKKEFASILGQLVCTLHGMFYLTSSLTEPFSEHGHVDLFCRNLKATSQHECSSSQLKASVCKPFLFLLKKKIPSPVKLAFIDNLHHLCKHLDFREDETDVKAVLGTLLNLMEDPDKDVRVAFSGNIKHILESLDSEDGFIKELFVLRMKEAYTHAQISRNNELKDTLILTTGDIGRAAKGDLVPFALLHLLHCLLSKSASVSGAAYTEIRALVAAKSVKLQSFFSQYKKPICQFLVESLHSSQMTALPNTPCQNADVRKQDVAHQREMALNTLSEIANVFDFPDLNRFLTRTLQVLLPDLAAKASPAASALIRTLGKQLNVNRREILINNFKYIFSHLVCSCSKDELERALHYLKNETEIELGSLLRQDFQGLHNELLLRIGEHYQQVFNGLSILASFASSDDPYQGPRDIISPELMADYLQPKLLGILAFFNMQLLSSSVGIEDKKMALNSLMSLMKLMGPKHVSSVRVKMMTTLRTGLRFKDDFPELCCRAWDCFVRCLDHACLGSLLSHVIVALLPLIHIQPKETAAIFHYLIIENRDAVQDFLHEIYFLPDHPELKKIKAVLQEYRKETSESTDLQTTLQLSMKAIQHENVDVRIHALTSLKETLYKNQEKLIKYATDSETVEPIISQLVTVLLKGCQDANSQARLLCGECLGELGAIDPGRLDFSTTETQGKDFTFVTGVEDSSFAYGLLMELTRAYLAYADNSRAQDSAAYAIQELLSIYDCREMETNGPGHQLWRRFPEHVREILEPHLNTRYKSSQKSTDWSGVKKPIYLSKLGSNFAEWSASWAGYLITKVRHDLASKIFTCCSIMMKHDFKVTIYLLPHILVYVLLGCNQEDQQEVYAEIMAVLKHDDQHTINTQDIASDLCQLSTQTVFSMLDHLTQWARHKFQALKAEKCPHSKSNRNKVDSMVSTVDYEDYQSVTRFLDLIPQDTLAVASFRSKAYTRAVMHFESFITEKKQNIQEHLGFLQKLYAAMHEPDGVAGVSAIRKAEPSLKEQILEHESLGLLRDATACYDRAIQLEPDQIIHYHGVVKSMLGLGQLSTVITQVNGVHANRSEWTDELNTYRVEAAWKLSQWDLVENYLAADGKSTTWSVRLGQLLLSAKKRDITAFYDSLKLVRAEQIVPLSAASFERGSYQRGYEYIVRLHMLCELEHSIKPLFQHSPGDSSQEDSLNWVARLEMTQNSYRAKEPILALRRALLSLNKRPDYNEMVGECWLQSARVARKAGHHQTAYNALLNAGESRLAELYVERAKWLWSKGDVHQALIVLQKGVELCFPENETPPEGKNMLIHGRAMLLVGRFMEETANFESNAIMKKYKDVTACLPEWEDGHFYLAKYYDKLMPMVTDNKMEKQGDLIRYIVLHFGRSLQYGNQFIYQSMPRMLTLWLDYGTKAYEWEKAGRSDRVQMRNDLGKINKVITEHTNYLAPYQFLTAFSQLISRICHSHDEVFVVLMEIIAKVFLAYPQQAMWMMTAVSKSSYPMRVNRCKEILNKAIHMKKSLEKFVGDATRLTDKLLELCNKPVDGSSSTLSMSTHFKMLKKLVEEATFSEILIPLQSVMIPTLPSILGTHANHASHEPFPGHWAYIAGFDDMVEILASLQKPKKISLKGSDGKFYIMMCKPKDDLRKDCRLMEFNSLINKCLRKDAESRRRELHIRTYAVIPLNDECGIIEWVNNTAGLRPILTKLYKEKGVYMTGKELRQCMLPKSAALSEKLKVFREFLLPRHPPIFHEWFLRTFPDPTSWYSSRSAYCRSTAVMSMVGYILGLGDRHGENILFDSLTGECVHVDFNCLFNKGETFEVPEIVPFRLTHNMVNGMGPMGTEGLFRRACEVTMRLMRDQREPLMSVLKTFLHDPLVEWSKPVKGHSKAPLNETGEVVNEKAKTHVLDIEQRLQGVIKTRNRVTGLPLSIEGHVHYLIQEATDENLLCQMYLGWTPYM
T1 sequence (Q8WXE1 whole entry partner): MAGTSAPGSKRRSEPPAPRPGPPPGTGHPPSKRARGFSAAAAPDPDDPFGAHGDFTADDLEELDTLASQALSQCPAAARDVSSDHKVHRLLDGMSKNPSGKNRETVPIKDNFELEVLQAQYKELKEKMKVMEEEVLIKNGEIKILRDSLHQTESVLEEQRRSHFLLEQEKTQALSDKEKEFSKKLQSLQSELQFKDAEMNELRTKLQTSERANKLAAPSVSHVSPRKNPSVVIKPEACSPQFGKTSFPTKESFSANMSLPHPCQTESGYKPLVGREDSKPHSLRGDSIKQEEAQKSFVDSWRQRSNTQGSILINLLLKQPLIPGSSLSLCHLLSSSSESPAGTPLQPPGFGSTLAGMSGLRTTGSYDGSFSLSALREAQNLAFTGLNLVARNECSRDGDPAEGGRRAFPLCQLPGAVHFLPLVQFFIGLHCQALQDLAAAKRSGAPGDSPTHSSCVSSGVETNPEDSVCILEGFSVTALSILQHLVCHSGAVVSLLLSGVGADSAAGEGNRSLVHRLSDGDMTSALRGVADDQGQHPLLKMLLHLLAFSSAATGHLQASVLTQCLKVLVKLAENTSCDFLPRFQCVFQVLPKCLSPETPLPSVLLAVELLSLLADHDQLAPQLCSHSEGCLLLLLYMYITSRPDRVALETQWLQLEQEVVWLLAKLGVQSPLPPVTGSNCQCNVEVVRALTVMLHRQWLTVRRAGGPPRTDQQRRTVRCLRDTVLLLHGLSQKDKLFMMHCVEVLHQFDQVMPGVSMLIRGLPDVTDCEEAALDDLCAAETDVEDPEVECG

Structure (SMILES) | IC50 [1] [nM] | IC50 (ATR kinase) [nM]
C[C@@H]1COCCN1c1cc(C2(C#N)CCCCC2)nc(Nc2ccn[nH]2)n1 [Compound 41, (R)-1-(2-((1H-pyrazol-5-yl)amino)-6-(3-methylmorpholino)pyrimidin-4-yl)cyclohexane-1-carbonitrile] | 370 | 2.5
Cc1cc(Nc2cc(C(C)(C)S(C)(=O)=O)cc(N3CCOC[C@H]3C)n2)[nH]n1 [Compound 27, 4-(2-methanesulfonylpropan-2-yl)-N-(3-methyl-1H-pyrazol-5-yl)-6-[(3R)-3-methylmorpholin-4-yl]pyridin-2-amine] | 564 | 15.7
C[C@@H]1COCCN1c1cc(C(C)(C)S(C)(=O)=O)cc(Nc2ccn[nH]2)n1 [Compound 26, (R)-6-(3-methylmorpholino)-4-(2-(methylsulfonyl)propan-2-yl)-N-(1H-pyrazol-5-yl)pyridin-2-amine] | 517 | 22
C[C@@H]1COCCN1c1cc(C2(S(C)(=O)=O)CC2)nc(Nc2ccn[nH]2)n1 [Compound 5, (R)-4-(3-methylmorpholino)-6-(1-(methylsulfonyl)cyclopropyl)-N-(1H-pyrazol-5-yl)pyrimidin-2-amine] | 653 | 
C[C@@H]1COCCN1c1cc(C(C)(C)C#N)nc(Nc2ccn[nH]2)n1 [Compound 28, (R)-2-(2-((1H-pyrazol-5-yl)amino)-6-(3-methylmorpholino)pyrimidin-4-yl)-2-methylpropanenitrile] | 406 | 30.4
C[C@@H]1COCCN1c1cc(C2(C#N)CCOCC2)nc(Nc2ccn[nH]2)n1 [Compound 42, (R)-4-(2-((1H-pyrazol-5-yl)amino)-6-(3-methylmorpholino)pyrimidin-4-yl) tetrahydro-2H-pyran-4-carbonitrile] | 640 | 19.7
C[C@@H]1COCCN1c1cc(C2(C#N)CCOCC2)cc(Nc2ccn[nH]2)n1 [Compound 39, (R)-4-(2-((1H-pyrazol-5-yl)amino)-6-(3-methylmorpholino)pyridin-4-yl) tetrahydro-2H-pyran-4-carbonitrile] | 844 | 
C[C@@H]1COCCN1c1cc(C2(S(C)(=O)=O)CCOCC2)nc(Nc2ccn[nH]2)n1 [Compound 11, (R)-4-(3-methylmorpholino)-6-(4-(methylsulfonyl)tetrahydro-2H-pyran-4-yl)-N-(1H-pyrazol-5-yl)pyrimidin-2-amine] | 1310 | 
Cc1cc(Nc2cc(C3(S(C)(=O)=O)CC3)cc(N3CCOC[C@H]3C)n2)[nH]n1 [Compound 19, 4-(1-methanesulfonylcyclopropyl)-N-(3-methyl-1H-pyrazol-5-yl)-6-[(3R)-3-methylmorpholin-4-yl]pyridin-2-amine] | 225 | 10.3
Cc1cc(Nc2nc(N3CCOC[C@H]3C)cc(C3(S(C)(=O)=O)CC3)n2)[nH]n1 [Compound 6, 4-(1-methanesulfonylcyclopropyl)-N-(3-methyl-1H-pyrazol-5-yl)-6-[(3R)-3-methylmorpholin-4-yl]pyrimidin-2-amine] | 401 | 16
Cc1cc(Nc2cc(-c3c(C)nnn3C)cc(N3CCOC[C@H]3C)n2)[nH]n1 [Compound 23, 4-(dimethyl-1H-1,2,3-triazol-5-yl)-N-(3-methyl-1H-pyrazol-5-yl)-6-[(3R)-3-methylmorpholin-4-yl]pyridin-2-amine] | 388 | 15.5
C[C@@H]1COCCN1c1cc(C(C)(C)S(C)(=O)=O)nc(Nc2ccn[nH]2)n1 [Compound 7, (R)-4-(3-methylmorpholino)-6-(2-(methylsulfonyl)propan-2-yl)-N-(1H-pyrazol-5-yl)pyrimidin-2-amine] | 872 | 28
Cc1cc(Nc2cc(-c3c(C)cnn3C)cc(N3CCOC[C@H]3C)n2)[nH]n1 [Compound 46, (R)-4-(1,4-dimethyl-1H-pyrazol-5-yl)-N-(3-methyl-1H-pyrazol-5-yl)-6-(3-methylmorpholino)pyridin-2-amine] | 410 | 
C[C@@H]1COCCN1c1cc(C2(S(C)(=O)=O)CC2)c(F)c(Nc2ccn[nH]2)n1 [Compound 34, (R)-3-fluoro-6-(3-methylmorpholino)-4-(1-(methylsulfonyl)cyclopropyl)-N-(1H-pyrazol-5-yl)pyridin-2-amine] | 442 | 
Cc1noc(C)c1-c1cc(Nc2ccn[nH]2)nc(N2CCOC[C@H]2C)c1 [Compound 22, (R)-4-(3,5-dimethylisoxazol-4-yl)-6-(3-methylmorpholino)-N-(1H-pyrazol-5-yl)pyridin-2-amine] | 192 | 
C[C@@H]1COCCN1c1cc(C2(C#N)CCCC2)nc(Nc2ccn[nH]2)n1 [Compound 40, (R)-1-(2-((1H-pyrazol-5-yl)amino)-6-(3-methylmorpholino)pyrimidin-4-yl) cyclopentane-1-carbonitrile] | 698 | 
Cc1cc(Nc2cc(-c3c(C)noc3C)cc(N3CCOC[C@H]3C)n2)[nH]n1 [Compound 47, (R)-4-(3,5-dimethylisoxazol-4-yl)-N-(3-methyl-1H-pyrazol-5-yl)-6-(3-methylmorpholino)pyridin-2-amine] | 390 | 

The next lines start with the values.

IC50 [1] [nM] | IC50 (ATR kinase) [nM] | Structure (SMILES)
718 | 33.3 | Cc1cc(Nc2cc(C3(C#N)CC3)cc(N3CCOC[C@H]3C)n2)[nH]n1 [Compound 35, 1-{2-[(3-methyl-1H-pyrazol-5-yl)amino]-6-[(3R)-3-methylmorpholin-4-yl]pyridin-4-yl}cyclopropane-1-carbonitrile]
966 |  | Cc1cc(Nc2cc(C3(S(C)(=O)=O)CCOCC3)cc(N3CCOC[C@H]3C)n2)[nH]n1 [Compound 36, (R)-N-(3-methyl-1H-pyrazol-5-yl)-6-(3-methylmorpholino)-4-(4-(methylsulfonyl)tetrahydro-2H-pyran-4-yl)pyridin-2-amine]
385 | 16.3 | Cc1cnn(C)c1-c1cc(Nc2ccn[nH]2)nc(N2CCOC[C@H]2C)c1 [Compound 4, (R)-4-(1,4-dimethyl-1H-pyrazol-5-yl)-6-(3-methylmorpholino)-N-(1H-pyrazol-5-yl)pyridin-2-amine]
1010 |  | C[C@@H]1COCCN1c1cc(C2(S(C)(=O)=O)CCOCC2)cc(Nc2ccn[nH]2)n1 [Compound 45, (R)-6-(3-methylmorpholino)-4-(4-(methylsulfonyl)tetrahydro-2H-pyran-4-yl)-N-(1H-pyrazol-5-yl)pyridin-2-amine]
842 |  | Cc1cnn(C)c1-c1cc(N2CCOC[C@H]2C)nc(Nc2ccn[nH]2)c1F [Compound 33, (R)-4-(1,4-dimethyl-1H-pyrazol-5-yl)-3-fluoro-6-(3-methylmorpholino)-N-(1H-pyrazol-5-yl)pyridin-2-amine]
807 |  | C[C@@H]1COCCN1c1cc(N(C)S(C)(=O)=O)cc(Nc2ccn[nH]2)n1 [Compound 13, (R)-N-(2-((1H-pyrazol-5-yl)amino)-6-(3-methylmorpholino)pyridin-4-yl)-N-methylmethanesulfonamide]
594 |  | C[C@@H]1COCCN1c1cc(C2(S(C)(=O)=O)CC2)c(CO)c(Nc2ccn[nH]2)n1 [Compound 17, (R)-(2-((1H-pyrazol-5-yl)amino)-6-(3-methylmorpholino)-4-(1-(methylsulfo-nyl)cyclopropyl)pyridin-3-yl)methanol]
515 |  | Cc1cnn(C)c1-c1cc(N2CCOC[C@H]2C)nc(Nc2ccn[nH]2)c1CO [Compound 15, (R)-(2-((1H-pyrazol-5-yl)amino)-4-(1,4-dimethyl-1H-pyrazol-5-yl)-6-(3-methylmorpholino)pyridin-3-yl)methanol]
800 |  | C[C@@H]1COCCN1c1cc(C2(C#N)CCCC2)cc(Nc2ccn[nH]2)n1 [Compound 37, 1-{2-[(3R)-3-methylmorpholin-4-yl]-6-[(1H-pyrazol-5-yl)amino]pyridin-4-yl}cyclopentane-1-carbonitrile]

Reference: patent US20230339927A1, “ATR INHIBITORS AND USES THEREOF” (ANTENGENE DISCOVERY LIMITED, priority 2020, published 2023)
